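Five compound concentrations were applied to cells in 96-well plates for 48 hours; endpoints were derived by simple linear interpolation of the resulting dose-response curve. GI50 = concentration required for 50% inhibition of growth.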 Activity calls are given as the source filed them. No stated cut-off is given here; in the data, active = GI50 up to about 1.1 µM and inactive = higher.
What was measured:
Assay in all cases: DTP human tumour cell line panel, 48 h
786-0 = tested on: 786-0
ACHN = tested on: ACHN
BT-549 = tested on: BT-549
CAKI-1 = tested on: CAKI-1
COLO 205 = tested on: COLO 205
EKVX = tested on: EKVX
KM12 = tested on: KM12
MOLT-4 = tested on: MOLT-4
Malme-3M = tested on: Malme-3M
NCI-H226 = tested on: NCI-H226
RPMI-8226 = tested on: RPMI-8226
RXF 393 = tested on: RXF 393
SF-268 = tested on: SF-268
SF-295 = tested on: SF-295
SNB-19 = tested on: SNB-19
SNB-75 = tested on: SNB-75
UACC-257 = tested on: UACC-257
UACC-62 = tested on: UACC-62
OVCAR-4 = tested on: OVCAR-4

Measured: GI50

c1ccc2nc3c(nc2c1)sc1nc2ccccc2n13
inactive: 786-0 46.1 µM | ACHN 92 µM | BT-549 > 100 µM | CAKI-1 > 100 µM | COLO 205 > 100 µM | EKVX > 100 µM | KM12 > 100 µM | MOLT-4 > 100 µM | Malme-3M > 100 µM | NCI-H226 > 100 µM | RPMI-8226 > 100 µM | RXF 393 28.4 µM | SF-268 56.1 µM | SF-295 45 µM | SNB-19 93.8 µM | SNB-75 > 100 µM | UACC-257 > 100 µM | UACC-62 > 100 µM

Brc1ccc(-c2ccc(-c3ccc(-c4ccc(Br)s4)s3)s2)s1
inactive: 786-0 > 100 µM | ACHN > 100 µM | BT-549 > 100 µM | CAKI-1 > 100 µM | COLO 205 > 100 µM | EKVX > 100 µM | KM12 > 100 µM | MOLT-4 > 100 µM | NCI-H226 54.1 µM | OVCAR-4 > 100 µM | RPMI-8226 > 100 µM | RXF 393 > 100 µM | SF-268 > 100 µM | SF-295 > 100 µM | SNB-75 > 100 µM | UACC-257 > 100 µM | UACC-62 > 100 µM

CC1(C)OC(CCO)CN1C(=O)OCc1ccccc1 (centres undefined)
inactive: 786-0 > 100 µM | ACHN > 100 µM | BT-549 33.6 µM | CAKI-1 > 100 µM | COLO 205 > 100 µM | EKVX > 100 µM | KM12 > 100 µM | MOLT-4 > 100 µM | Malme-3M > 100 µM | NCI-H226 > 100 µM | OVCAR-4 > 100 µM | RPMI-8226 > 100 µM | RXF 393 > 100 µM | SF-295 > 100 µM | SNB-19 > 100 µM | SNB-75 92 µM | UACC-257 > 100 µM | UACC-62 > 100 µM

CN(CCN1C(=O)c2cccc3cccc(c23)C1=O)CCN1C(=O)c2cccc3cccc(c23)C1=O
inactive: 786-0 9.02 µM | ACHN 7.69 µM | BT-549 53.1 µM | CAKI-1 > 100 µM | COLO 205 2.55 µM | EKVX > 100 µM | KM12 > 100 µM | MOLT-4 7.73 µM | Malme-3M 6 µM | NCI-H226 17.5 µM | OVCAR-4 > 100 µM | RXF 393 23.3 µM | SF-268 27.7 µM | SF-295 12.8 µM | SNB-19 3.17 µM | SNB-75 19.2 µM | UACC-257 60.1 µM | UACC-62 30 µM

CCC(=O)NC(Nc1cc(C)on1)(C(F)(F)F)C(F)(F)F
inactive: 786-0 > 100 µM | ACHN > 100 µM | BT-549 > 100 µM | CAKI-1 > 100 µM | EKVX > 100 µM | KM12 > 100 µM | MOLT-4 > 100 µM | Malme-3M > 100 µM | NCI-H226 > 100 µM | RPMI-8226 > 100 µM | RXF 393 > 100 µM | SF-268 > 100 µM | SNB-19 > 100 µM | SNB-75 > 100 µM | UACC-257 > 100 µM | UACC-62 > 100 µM

CC(=O)OCC1OC(n2c3c(cc(C#N)c2=S)CCCCCC3)C(OC(C)=O)C(OC(C)=O)C1OC(C)=O (centres undefined)
inactive: 786-0 99.8 µM | ACHN > 100 µM | BT-549 > 100 µM | CAKI-1 > 10 µM | COLO 205 84.1 µM | KM12 > 100 µM | MOLT-4 26.1 µM | Malme-3M > 100 µM | NCI-H226 > 100 µM | OVCAR-4 > 100 µM | RPMI-8226 55.5 µM | RXF 393 > 100 µM | SF-268 > 100 µM | SF-295 > 100 µM | SNB-19 > 100 µM | SNB-75 27.2 µM | UACC-257 > 100 µM | UACC-62 54.7 µM

CCN1C(=O)/C(=C2\SC(c3ccccc3)(c3ccccc3)c3ccccc32)SC1=S
inactive: 786-0 43.3 µM | ACHN > 100 µM | BT-549 43.9 µM | COLO 205 64.4 µM | EKVX 75.9 µM | KM12 > 100 µM | MOLT-4 96.4 µM | Malme-3M > 100 µM | NCI-H226 > 100 µM | OVCAR-4 63.4 µM | RPMI-8226 > 100 µM | RXF 393 > 100 µM | SF-268 36.3 µM | SF-295 24.4 µM | SNB-19 10.1 µM | SNB-75 53.1 µM | UACC-257 > 100 µM | UACC-62 > 100 µM

O=C(Nc1ccc(Cl)c(C(F)(F)F)c1)C(=O)c1c(O)c2ccccc2oc1=O
inactive: 786-0 > 100 µM | ACHN > 100 µM | BT-549 > 100 µM | CAKI-1 > 100 µM | EKVX > 100 µM | KM12 > 100 µM | MOLT-4 > 100 µM | Malme-3M > 100 µM | NCI-H226 > 100 µM | OVCAR-4 > 100 µM | RPMI-8226 > 100 µM | RXF 393 > 100 µM | SF-268 > 100 µM | SF-295 > 100 µM | SNB-19 > 100 µM | SNB-75 > 100 µM | UACC-257 > 100 µM | UACC-62 > 100 µM

CC(=O)OC[C@]1(C(=O)C(O)c2ccoc2)[C@H](C)CC[C@@]23COC(=O)C2=CCC[C@@H]31 (some centres undefined)
inactive: 786-0 > 10 µM | ACHN > 10 µM | BT-549 > 10 µM | CAKI-1 > 10 µM | COLO 205 > 10 µM | EKVX > 10 µM | KM12 > 10 µM | MOLT-4 > 10 µM | NCI-H226 > 10 µM | OVCAR-4 > 10 µM | RPMI-8226 > 10 µM | RXF 393 > 10 µM | SF-268 > 10 µM | SF-295 > 10 µM | SNB-19 > 10 µM | SNB-75 > 10 µM | UACC-257 > 10 µM | UACC-62 > 10 µM

COC(=O)C12CCC(C(F)(F)C1=O)C2(C)C (centres undefined)
inactive: 786-0 > 100 µM | ACHN > 100 µM | BT-549 > 100 µM | CAKI-1 > 100 µM | COLO 205 > 100 µM | KM12 > 100 µM | MOLT-4 > 100 µM | Malme-3M > 100 µM | NCI-H226 > 100 µM | OVCAR-4 > 100 µM | RPMI-8226 > 100 µM | RXF 393 > 100 µM | SF-268 > 100 µM | SF-295 > 100 µM | SNB-19 > 100 µM | SNB-75 > 100 µM | UACC-257 > 100 µM | UACC-62 > 100 µM

CCN(CC)CCCNC(=O)c1cc2cc(NC(=O)c3cc4cc([N+](=O)[O-])ccc4[nH]3)ccc2[nH]1
inactive: 786-0 40.8 µM | ACHN > 100 µM | BT-549 > 100 µM | CAKI-1 > 100 µM | COLO 205 > 100 µM | EKVX > 100 µM | KM12 7.21 µM | NCI-H226 > 100 µM | OVCAR-4 > 100 µM | RPMI-8226 16.9 µM | RXF 393 > 100 µM | SF-268 > 100 µM | SF-295 44.3 µM | SNB-19 > 100 µM | SNB-75 > 100 µM | UACC-257 29.9 µM | UACC-62 32.8 µM

CCOC(=O)C1(Cc2ccccc2)Cc2cc3c(cc2C1=O)CCC3 (centres undefined)
inactive: 786-0 > 100 µM | ACHN > 100 µM | BT-549 > 100 µM | COLO 205 > 100 µM | EKVX > 100 µM | KM12 > 100 µM | MOLT-4 > 100 µM | Malme-3M > 100 µM | NCI-H226 > 100 µM | OVCAR-4 > 100 µM | RPMI-8226 > 100 µM | RXF 393 > 100 µM | SF-268 > 100 µM | SF-295 > 100 µM | SNB-19 > 100 µM | SNB-75 > 100 µM | UACC-257 > 100 µM | UACC-62 > 100 µM

CC(=O)Oc1c2oc3ccc(Cl)cc3c(=O)c2c(O)c2ccsc12
inactive: 786-0 > 100 µM | ACHN > 100 µM | BT-549 51.4 µM | CAKI-1 > 100 µM | COLO 205 > 100 µM | EKVX > 100 µM | KM12 > 100 µM | Malme-3M > 100 µM | NCI-H226 > 100 µM | OVCAR-4 > 100 µM | RPMI-8226 > 100 µM | RXF 393 > 100 µM | SF-268 > 100 µM | SF-295 > 100 µM | SNB-19 > 100 µM | SNB-75 52.4 µM | UACC-257 > 100 µM | UACC-62 > 100 µM

COc1ccc(NC2Oc3cc4c(cc3C(c3cccc(OC)c3OC)C2C)OCO4)cc1 (centres undefined)
inactive: 786-0 7.96 µM | ACHN 4.59 µM | BT-549 13.5 µM | CAKI-1 3.72 µM | COLO 205 6.14 µM | EKVX 18.5 µM | KM12 6.68 µM | MOLT-4 2.9 µM | Malme-3M 15.4 µM | NCI-H226 6.82 µM | RPMI-8226 11.4 µM | RXF 393 3.72 µM | SF-268 10.1 µM | SF-295 3.73 µM | SNB-19 53.3 µM | SNB-75 5.06 µM | UACC-257 4.46 µM | UACC-62 14.9 µM

O=C(N/N=C\c1cccc2ccccc12)Nc1cccc2ccccc12
inactive: 786-0 11.7 µM | ACHN 23.2 µM | BT-549 27.7 µM | CAKI-1 25.7 µM | COLO 205 16.9 µM | EKVX 84.7 µM | KM12 11 µM | MOLT-4 4.49 µM | Malme-3M 35.2 µM | NCI-H226 49.4 µM | OVCAR-4 > 10 µM | RXF 393 14.1 µM | SF-268 63.4 µM | SNB-19 16.4 µM | SNB-75 6.61 µM | UACC-257 27.3 µM

Reference: ChEMBL document CHEMBL1201862, “PubChem BioAssay data set” (2004)
